Test results taken from patent US20090018111A1, “Novel Antimicrobial Medicament” (priority 2004, published 2009).
Like-named read-outs stand apart in the source and are kept apart here.

Experiments:
E. faecium ATCC19434 = assay: Sensitivity test (agar dilution); assay type: cell-based, Enterococcus faecium; settings: Enterococcus faecium, E. faecium ATCC19434
Protocol: (§1) The antibacterial activities were tested against various 18 bacteria (27 standard strains) which are representative bacteria caused clinically infectious disease (Staphylococcus aureus 3 strains, Staphylococcus epidermidis 1 strain, Micrococcus luteus 1 strain, Streptococcus pyogenes 1 strain, Enterococcus faecalis 1 strain, Enterococcus faecium 1 strain, Bacillus subtilis 1 strain, Escherichia coli 3 strains, Klebsiella pneumoniae 1 strain, Proteus mirabilis 1 strain, Proteus vulgaris 2 strains, Pseudomonas aeruginosa 3 strains, Serratia marcescens 2 strains, Enterobacter aerogenes 1 strain, Stenotrophomonas maltophilia 1 strain, Enterobacter cloacae 1 strain, Citrobacter freundii 1 strain, Moraxella catarrhalis 2 strains).
(§2) According to the standard method of Japan Chemotherapeutic Society (Chemotherapy, vol. […], p 76-79 (1981)) the test was carried out using the agar dilution method. After dissolving test samples in distilled water, agar medium containing the test samples was prepared in such a manner that the final concentration became twice serial dilution by pouring serially diluted combination drug solution or a single drug solution into agar medium. As agar medium was used Mueller Hinton Agar medium (MHA). Then, each strain was cultivated over night at 37° C. in an incubator and suspended in buffered saline solution with gelatin (BSG) in the concentration of about 10^6 CFU/ml. The suspension (about 5 μl) containing test strains was inoculated to the medium containing the test samples by Micro Planter.
(§3) When the sample is subjected to sensitivity test, this mixed solution was diluted by twice serial dilution method.
(§4) Furthermore, when the drug is solely used, each test sample was used as it is, and diluted by twice serial dilution method from the maximum concentration to the minimum concentration.
(§5) FIC index based on MIC value was calculated. […] Namely, when FIC index calculated by the following formula is equal or less than 1, the enhanced effect of the combination drug in said ratio is considered as positive. When FIC index is over 1, the enhanced effect of the combination drug in said ratio is considered as negative.
(§6) Formula of FIC index: FIC index=(MIC of Drug A in combination/MIC of Drug A alone)+(MIC of Drug B in combination/MIC of Drug B alone) N.C. in tables means being not calculated.

K. pneumoniae ATCC10031 = assay: Sensitivity test (agar dilution); assay type: cell-based, Klebsiella pneumoniae; settings: Klebsiella pneumoniae, K. pneumoniae ATCC10031
Protocol: as §1, §2, §3, §4, §5, §6

M. luteus ATCC9341 = assay: Sensitivity test (agar dilution); assay type: cell-based, Micrococcus luteus; settings: Micrococcus luteus, M. luteus ATCC9341
Protocol: as §1, §2, §3, §4, §5, §6

E. cloacae GN7471 = assay: Sensitivity test (agar dilution); assay type: cell-based, Enterobacter cloacae; settings: Enterobacter cloacae, E. cloacae GN7471
Protocol: as §1, §2, §3, §4, §5, §6

M. catarrhalis ATCC8176 = assay: Sensitivity test (agar dilution); assay type: cell-based, Moraxella catarrhalis; settings: Moraxella catarrhalis, M. catarrhalis ATCC8176
Protocol: as §1, §2, §3, §4, §5, §6

M. catarrhalis ATCC25238 = assay: Sensitivity test (agar dilution); assay type: cell-based, Moraxella catarrhalis; settings: Moraxella catarrhalis, M. catarrhalis ATCC25238
Protocol: as §1, §2, §3, §4, §5, §6

E. coli ML1410 RP4 = assay: microbe, parasite or virus in culture; assay type: cell-based, Escherichia coli; settings: Escherichia coli, E. coli ML1410 RP4
Protocol: as §1, §2, §3, §4, §5, §6

P. mirabiris GN2425 = assay: Sensitivity test (agar dilution); assay type: cell-based, Proteus mirabilis; settings: Proteus mirabilis, P. mirabiris GN2425
Protocol: as §1, §2, §3, §4, §5, §6

S. marcescens GN6473 = assay: Sensitivity test (agar dilution); assay type: cell-based, Serratia marcescens; settings: Serratia marcescens, S. marcescens GN6473
Protocol: as §1, §2, §3, §4, §5, §6

S. marcescens X 100 = assay: Sensitivity test (agar dilution); assay type: cell-based, Serratia marcescens; settings: Serratia marcescens, S. marcescens X 100
Protocol: as §1, §2, §3, §4, §5, §6

S. maltophilia IID1275 = assay: Sensitivity test (agar dilution); assay type: cell-based, Stenotrophomonas maltophilia; settings: Stenotrophomonas maltophilia, S. maltophilia IID1275
Protocol: as §1, §2, §3, §4, §5, §6

S. epidermidis IAM1296 = assay: Sensitivity test (agar dilution); assay type: cell-based, Staphylococcus epidermidis; settings: Staphylococcus epidermidis, S. epidermidis IAM1296
Protocol: as §1, §2, §3, §4, §5, §6

C. freundii GN346 = assay: Sensitivity test (agar dilution); assay type: cell-based, Citrobacter freundii; settings: Citrobacter freundii, C. freundii GN346
Protocol: as §1, §2, §3, §4, §5, §6

[1] = ATCC19434, drug alone, read-out: MIC alone
[2] = ATCC10031, drug alone, read-out: MIC alone
[3] = ATCC9341, drug alone, read-out: MIC alone
[4] = GN7471, drug alone, read-out: MIC alone
[5] = ATCC8176, drug alone, read-out: MIC alone
[6] = ATCC25238, drug alone, read-out: MIC alone
[7] = ML1410RP4, read-out: MIC alone, drug alone
[8] = GN2425, drug alone, read-out: MIC alone
[9] = GN6473, drug alone, read-out: MIC alone
[10] = X100, drug alone, read-out: MIC alone
[11] = IID1275, drug alone, read-out: MIC alone
[12] = IAM1296, drug alone, read-out: MIC alone
[13] = GN346, drug alone, read-out: MIC alone

Row | SMILES | MIC (E. faecium ATCC19434; [1]) [µg/mL] | MIC (K. pneumoniae ATCC10031; [2]) [µg/mL] | MIC (M. luteus ATCC9341; [3]) [µg/mL] | MIC (E. cloacae GN7471; [4]) [µg/mL] | MIC (M. catarrhalis ATCC8176; [5]) [ng/mL] | MIC (M. catarrhalis ATCC25238; [6]) [ng/mL] | MIC (E. coli ML1410 RP4; [7]) [µg/mL] | MIC (P. mirabiris GN2425; [8]) [µg/mL] | MIC (S. marcescens GN6473; [9]) [µg/mL] | MIC (S. marcescens X 100; [10]) [µg/mL] | MIC (S. maltophilia IID1275; [11]) [µg/mL] | MIC (S. epidermidis IAM1296; [12]) [µg/mL] | MIC (C. freundii GN346; [13]) [µg/mL] | also measured
1 | CC(C)(O/N=C(\C(=O)N[C@@H]1C(=O)N2C(C(=O)[O-])=C(C[n+]3ccccc3)CS[C@H]12)c1csc(N)n1)C(=O)O [CAZ, ceftazidime] | > 32 | 0.031 | 1 | 32 | 16 | 16 | 0.5 | 0.063 | 0.5 | 0.25 | > 32 | > 32 | 1 | MIC (E. faecium ATCC19434; ATCC19434, Concomitant (CAZ:SM = 1:1), read-out: MIC concomitant): 0.125 µg/mL; MIC (K. pneumoniae ATCC10031; ATCC10031, Concomitant (CAZ:SM = 1:1), read-out: MIC concomitant): 0.008 µg/mL; MIC (M. luteus ATCC9341; ATCC9341, Concomitant (CAZ:SM = 1:1), read-out: MIC concomitant): ≤ 0.002 µg/mL; MIC (E. cloacae GN7471; GN7471, Concomitant (CAZ:SM = 1:1), read-out: MIC concomitant): 8 µg/mL; MIC (M. catarrhalis ATCC8176; ATCC8176, Concomitant (CAZ:SM = 1:1), read-out: MIC concomitant): ≤ 2 ng/mL; MIC (M. catarrhalis ATCC25238; ATCC25238, Concomitant (CAZ:SM = 1:1), read-out: MIC concomitant): ≤ 2 ng/mL; MIC (E. coli ML1410 RP4; ML1410RP4, read-out: MIC concomitant, Concomitant (CAZ:SM = 1:1)): 0.125 µg/mL; MIC (P. mirabiris GN2425; GN2425, Concomitant (CAZ:SM = 1:1), read-out: MIC concomitant): 0.031 µg/mL; MIC (S. marcescens GN6473; GN6473, Concomitant (CAZ:SM = 1:1), read-out: MIC concomitant): 0.5 µg/mL; MIC (S. marcescens X 100; X100, Concomitant (CAZ:SM = 1:1), read-out: MIC concomitant): 0.125 µg/mL; MIC (S. maltophilia IID1275; IID1275, Concomitant (CAZ:SM = 1:1), read-out: MIC concomitant): > 32 µg/mL; MIC (S. epidermidis IAM1296; IAM1296, Concomitant (CAZ:SM = 1:1), read-out: MIC concomitant): 0.031 µg/mL; MIC (C. freundii GN346; GN346, Concomitant (CAZ:SM = 1:1), read-out: MIC concomitant): 8 µg/mL
2 | C[C@@H](O)[C@H]1C(=O)N2C(C(=O)[O-])=C(SC3Cn4cnc[n+]4C3)[C@H](C)[C@H]12 (stereo partly drawn) [BIPM, biapenem] | 16 | 0.031 | 0.125 | 0.063 | 31 | 16 | 0.25 | 0.25 | 0.125 | 0.063 | > 32 | 1 | 0.25 | MIC (E. faecium ATCC19434; ATCC19434, Concomitant (BIPM:SM = 1:1), read-out: MIC concomitant): 0.25 µg/mL; MIC (K. pneumoniae ATCC10031; ATCC10031, Concomitant (BIPM:SM = 1:1), read-out: MIC concomitant): 0.016 µg/mL; MIC (M. luteus ATCC9341; ATCC9341, Concomitant (BIPM:SM = 1:1), read-out: MIC concomitant): 0.004 µg/mL; MIC (E. cloacae GN7471; GN7471, Concomitant (BIPM:SM = 1:1), read-out: MIC concomitant): 0.063 µg/mL; MIC (M. catarrhalis ATCC8176; ATCC8176, Concomitant (BIPM:SM = 1:1), read-out: MIC concomitant): ≤ 2 ng/mL; MIC (M. catarrhalis ATCC25238; ATCC25238, Concomitant (BIPM:SM = 1:1), read-out: MIC concomitant): ≤ 2 ng/mL; MIC (E. coli ML1410 RP4; ML1410RP4, read-out: MIC concomitant, Concomitant (BIPM:SM = 1:1)): 0.125 µg/mL; MIC (P. mirabiris GN2425; GN2425, Concomitant (BIPM:SM = 1:1), read-out: MIC concomitant): 0.125 µg/mL; MIC (S. marcescens GN6473; GN6473, Concomitant (BIPM:SM = 1:1), read-out: MIC concomitant): 0.125 µg/mL; MIC (S. marcescens X 100; X100, Concomitant (BIPM:SM = 1:1), read-out: MIC concomitant): 0.063 µg/mL; MIC (S. maltophilia IID1275; IID1275, Concomitant (BIPM:SM = 1:1), read-out: MIC concomitant): > 32 µg/mL; MIC (S. epidermidis IAM1296; IAM1296, Concomitant (BIPM:SM = 1:1), read-out: MIC concomitant): 0.031 µg/mL; MIC (C. freundii GN346; GN346, Concomitant (BIPM:SM = 1:1), read-out: MIC concomitant): 0.125 µg/mL
3 | C[C@@H](O)[C@H]1C(=O)N2C(C(=O)O)=C(S[C@@H]3CN[C@H](CNS(N)(=O)=O)C3)[C@H](C)[C@H]12 [DRPM, doripenem] | 8 | 0.016 | 0.031 | 0.031 | 8 | 4 | 0.031 | 0.063 | 0.063 | 0.031 | > 32 | 0.5 | 0.063 | MIC (E. faecium ATCC19434; ATCC19434, Concomitant (DRPM:SM = 1:1), read-out: MIC concomitant): 0.25 µg/mL; MIC (K. pneumoniae ATCC10031; ATCC10031, Concomitant (DRPM:SM = 1:1), read-out: MIC concomitant): 0.008 µg/mL; MIC (M. luteus ATCC9341; ATCC9341, Concomitant (DRPM:SM = 1:1), read-out: MIC concomitant): ≤ 0.002 µg/mL; MIC (E. cloacae GN7471; GN7471, Concomitant (DRPM:SM = 1:1), read-out: MIC concomitant): 0.031 µg/mL; MIC (M. catarrhalis ATCC8176; ATCC8176, Concomitant (DRPM:SM = 1:1), read-out: MIC concomitant): ≤ 2 ng/mL; MIC (M. catarrhalis ATCC25238; ATCC25238, Concomitant (DRPM:SM = 1:1), read-out: MIC concomitant): ≤ 2 ng/mL; MIC (E. coli ML1410 RP4; ML1410RP4, read-out: MIC concomitant, Concomitant (DRPM:SM = 1:1)): 0.031 µg/mL; MIC (P. mirabiris GN2425; GN2425, Concomitant (DRPM:SM = 1:1), read-out: MIC concomitant): 0.063 µg/mL; MIC (S. marcescens GN6473; GN6473, Concomitant (DRPM:SM = 1:1), read-out: MIC concomitant): 0.063 µg/mL; MIC (S. marcescens X 100; X100, Concomitant (DRPM:SM = 1:1), read-out: MIC concomitant): 0.031 µg/mL; MIC (S. maltophilia IID1275; IID1275, Concomitant (DRPM:SM = 1:1), read-out: MIC concomitant): > 32 µg/mL; MIC (S. epidermidis IAM1296; IAM1296, Concomitant (DRPM:SM = 1:1), read-out: MIC concomitant): 0.031 µg/mL; MIC (C. freundii GN346; GN346, Concomitant (DRPM:SM = 1:1), read-out: MIC concomitant): 0.063 µg/mL
